Results published in US20250296938A1, “Compounds that Interact with the Ras Superfamily for the Treatment of Cancers, Inflammatory Diseases, Rasopathies, and Fibrotic Disease” (SHY Therapeutics, LLC, priority 2018, published 2025).
Like-named read-outs stand apart in the source and are kept apart here.

Tests used:
Assay in all cases: Ras GTP binding domain inhibition assay (Cy3-GTP/Cy5-GTP competition)
KRas G12D mutant = molecular target: T1, KRas G12D mutant (Homo sapiens, UniProt P01116, G12D); conditions: at 20 μM
T1 construct: fused on or other part: His tag, used for capture on nickel-coated plates
Method in brief: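 Compounds tested at 20 μM or in serial dilution for IC50 against nickel-captured His-tagged GTPase, 3 hours at room temperature, with or without His-Sos GEF added for last hour. Fluorescent GTP then added at 100 nM for 45 minutes; wells washed, bound label measured by fluorescence.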

Rac-1 = Rac-1 (Homo sapiens, UniProt P63000)
Method in brief: (§1)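 First, His-tagged protein is coated on nickel wells overnight at 4 °C. Next, compound (20 μM single point or serial dilution) is added for 3 h at room temperature, with or without Sos exchange factor in the last hour. Finally, 100 nM labelled GTP binds for 45 min and retained signal is measured.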

Rho-A = Rho-A (Homo sapiens, UniProt P61586)
Method in brief: as §1

[1] = with SOS, read-out: KRas G12D mutant + SOS: % inh.
[2] = without SOS, read-out: KRas G12D mutant: % inh.
[3] = with SOS, read-out: Rac-1 + SOS: % inh.
[4] = without SOS, read-out: Rac-1: % inh.
[5] = with SOS, read-out: Rho-A + SOS: % inh.
[6] = without SOS, read-out: Rho-A: % inh.

| inhibition at 20 µM (KRas G12D mutant; [1]) [%] | inhibition at 20 µM (KRas G12D mutant; [2]) [%] | inhibition at 20 µM (Rac-1; [3]) [%] | inhibition at 20 µM (Rac-1; [4]) [%] | inhibition at 20 µM (Rho-A; [5]) [%] | inhibition at 20 µM (Rho-A; [6]) [%] | KRas G12D mutant: % inh. (KRas G12D mutant; without SOS) | Rac-1 + SOS: % inh. (Rac-1; at 20 μM, with SOS) | Rac-1: % inh. (Rac-1; at 20 μM, without SOS) | Rho-A + SOS: % inh. (Rho-A; at 20 μM, with SOS) | Rho-A: % inh. (Rho-A; at 20 μM, without SOS) | Compound |
| --- | --- | --- | --- | --- | --- | --- | --- | --- | --- | --- | --- |
| 26 to 50 | 51 to 75 | 76 to 100 | 76 to 100 | 51 to 75 | 51 to 75 |  |  |  |  |  | CCOc1cccc(Nc2nc(-c3ccccn3)nc(O)c2OC)c1 [drawing 1017] |
| 76 to 100 | 26 to 50 | 26 to 50 | 26 to 50 | 0 | 0 |  |  |  |  |  | COCCNc1nc(-c2cn(C)cn2)nc2sc(-c3ccccc3Cl)c(-c3ccc(OC)cc3)c12 [drawing 1008] |
| 51 to 75 | 26 to 50 | 0 | 0 | 26 to 50 | 51 to 75 |  |  |  |  |  | COc1ccc(-c2sc3nc(-c4nccn4C)nc(N4CCC(OC)C4)c3c2-c2ccccc2)cn1 (stereo not drawn) [drawing 971] |
| 26 to 50 | 76 to 100 | 51 to 75 | 76 to 100 | 51 to 75 | 51 to 75 |  |  |  |  |  | COc1ccc(Oc2nc(-c3ccccn3)nc(O)c2OC)cc1 [drawing 950] |
| 51 to 75 | 51 to 75 | 1 to 25 | 1 to 25 | 51 to 75 | 26 to 50 |  |  |  |  |  | COC1CCN(c2nc(-c3nccn3C)nc3sc(-c4cnc(C5CC5)o4)c(-c4ccccc4)c23)C1 (stereo not drawn) [drawing 977] |
| 51 to 75 | 51 to 75 | 0 | 0 | 51 to 75 | 51 to 75 |  |  |  |  |  | COCC1CN(c2nc(-c3nccn3C)nc3sc(-c4cccc(OC)c4F)c(-c4ccc(OC)cc4)c23)C1 [drawing 940] |
| 51 to 75 | 51 to 75 | 76 to 100 | 76 to 100 | 51 to 75 | 76 to 100 |  |  |  |  |  | COc1cccc(Cn2ccnc2-c2nc(O)c3scc(-c4ccc(OCC(C)C)nc4)c3n2)c1 [drawing 1035] |
| 51 to 75 | 51 to 75 | 1 to 25 | 26 to 50 | 26 to 50 | 26 to 50 |  |  |  |  |  | COCC(C)Nc1nc(-c2nccn2C)nc2sc(-c3cccc(OC)c3)c(-c3cscn3)c12 (stereo not drawn) [drawing 990] |
| 51 to 75 | 51 to 75 | 51 to 75 | 51 to 75 | 26 to 50 | 0 |  |  |  |  |  | O=C(NCc1ccccc1)c1nc(-c2ccccn2)nc(O)c1O [drawing 956] |
| 51 to 75 | 26 to 50 | 51 to 75 | 51 to 75 | 26 to 50 | 51 to 75 |  |  |  |  |  | COC1CCC(Nc2nc(-c3nccn3C)nc3sc(-c4cccc5[nH]ncc45)c(C)c23)C1 (stereo not drawn) [drawing 1030] |
| 51 to 75 | 76 to 100 | 76 to 100 | 76 to 100 | 51 to 75 | 26 to 50 |  |  |  |  |  | COc1cccc(Cn2ccnc2-c2nc(O)c3scc(-c4ccccn4)c3n2)c1 [drawing 985] |
| 26 to 50 | 26 to 50 | 26 to 50 | 26 to 50 | 26 to 50 | 26 to 50 |  |  |  |  |  | CO[C@H]1C[C@@H](Nc2nc(-c3ncc[nH]3)nc3sc(-c4ccn(C)n4)c(-c4ccccc4)c23)C1 [drawing 1045] |
| 51 to 75 | 51 to 75 | 76 to 100 | 76 to 100 | 51 to 75 | 51 to 75 |  |  |  |  |  | COc1c(O)nc(-c2ccccn2)nc1Oc1cnn(C)c1 [drawing 938] |
| 76 to 100 | 26 to 50 | 26 to 50 | 1 to 25 | 0 | 0 |  |  |  |  |  | COCCNc1nc(-c2nccn2C)nc2sc(-c3ccccc3Cl)c(-c3ccc(OC)cc3)c12 [drawing 1011] |
| 51 to 75 | 76 to 100 | 76 to 100 | 76 to 100 | 76 to 100 | 76 to 100 |  |  |  |  |  | Oc1nc(-c2ncc3ccccn23)nc2c(-c3ccccn3)csc12 [drawing 969] |
| 26 to 50 | 26 to 50 | 26 to 50 | 26 to 50 | 0 | 0 |  |  |  |  |  | COC1CCN(c2nc(-c3nccn3C)nc3sc(-c4ccn(C)n4)c(-c4ccccc4)c23)CC1 [drawing 991] |
| 1 to 25 | 1 to 25 | 0 | 0 | 26 to 50 | 0 |  |  |  |  |  | COC1CCN(c2nc(-c3nccn3C)nc3sc(-c4ccc(N)nc4C)c(-c4ccccc4)c23)C1 (stereo not drawn) [drawing 953] |
| 76 to 100 | 51 to 75 | 26 to 50 | 1 to 25 | 0 | 0 |  |  |  |  |  | COCCNc1nc(-c2nccn2C)nc2sc(-c3cccc(OC)c3)c(-c3ccc(OC)cc3)c12 [drawing 1010] |
| 26 to 50 | 51 to 75 | 51 to 75 | 51 to 75 | 76 to 100 | 26 to 50 |  |  |  |  |  | Cn1ccnc1-c1nc(O)c(O)c(C(=O)NC2CCCC2)n1 [drawing 962] |
| 26 to 50 | 26 to 50 | 76 to 100 | 51 to 75 | 51 to 75 | 51 to 75 |  |  |  |  |  | CCn1cc(Nc2nc(-c3ccccn3)nc(O)c2OC)cn1 [drawing 1016] |
| 1 to 25 | 0 | 0 | 0 | 51 to 75 | 1 to 25 |  |  |  |  |  | COCCCNc1nc(-c2nccn2C)nc2sc(-c3ccn(C)n3)c(-c3ccc(OC)cc3)c12 [drawing 1005] |
| 26 to 50 | 51 to 75 | 26 to 50 | 26 to 50 | 0 | 1 to 25 |  |  |  |  |  | COCCCN(C)c1nc(-c2nccn2C)nc2sc(-c3ccn(C)n3)c(-c3ccccc3)c12 [drawing 1000] |
| 51 to 75 |  |  |  |  |  | C (51-75% inhibition) | 0 (0% inhibition) | A (1-25% inhibition) | C (51-75% inhibition) | A (1-25% inhibition) | COc1cccc(-c2sc3nc(-c4nccn4C)nc(N4CCC(OC)C4)c3c2-c2ccccc2)c1F.Cl (stereo not drawn) [drawing 973] |
| 26 to 50 | 26 to 50 | 0 | 1 to 25 | 0 | 51 to 75 |  |  |  |  |  | COC1CCN(c2nc(-c3nccn3C)nc3sc(-c4ccncc4C)c(-c4ccccc4)c23)C1 (stereo not drawn) [drawing 955] |
| 51 to 75 | 26 to 50 | 1 to 25 | 1 to 25 | 26 to 50 | 1 to 25 |  |  |  |  |  | COC1CCN(c2nc(-c3nccn3C)nc3sc(Br)c(-c4ccccc4)c23)C1 (stereo not drawn) [drawing 957] |
